Where two headings read alike, the source gives them in different places. Non-standard residues stand in square brackets, D forms with d. Residues, ends and D or L forms follow the SMILES beside them.
Target: platelet-derived growth factor β-receptor (PDGFR-β) (Homo sapiens, UniProt P09619)
Test: Solid-phase assay: displacement of 125I-PDGF-BB from immobilized PDGFR-β
Assay type: binding
Protocol: Direct immobilization of platelet-derived growth factor […] is performed by overnight incubation in immunosorbent 96-well plates (Nunc) at 4° C. using 100 ng of purified protein in 100 μl of 15 mM Na2CO3, 35 mM NaHCO3, pH 9.6. The plates are washed once with tris-buffered saline (TBS, 20 mM Tris-HCl, 150 mM NaCl, pH 7.4), and nonspecific adsorption is blocked by at least 1 h of incubation with TBS plus 1% bovine serum albumin (BSA). Following washing with TBS plus 0.1% Tween, 3000 cpm of ^125I-PDGF-BB and increasing amounts of unlabeled PDGF-BB or the peptide derivative of formula I are added to duplicate wells and incubated for 3 h at room temperature in 0.1% Tween, 1 mM CaCl2, 1 mM MgCl2 and 1% BSA. The plates are washed three times with TBS plus 0.1% Tween, and bound ligand is removed with 0.1 M citric acid, pH 2.5, prior to counting in a γ-counter.
Direct immobilization of platelet-derived growth factor β-receptor (PDGFR-β) was performed by overnight incubation in immunosorbent 96-well plates (Nunc) at 4° C. using 100 ng of purified protein in 100 μl of 15 mM Na2CO3, 35 mM NaHCO3, pH 9.6. Plates were washed once with Tris-buffered saline (TBS, 20 mM Tris-HCL, 150 mM Na Cl, pH 7.4), and nonspecific adsorption was blocked by at least 1 h of incubation with TBS plus 1% bovine serum albumin (BSA). Following washing with TBS plus 0.1% Tween, 3000 cpm of ^125I-PDGF-BB and increasing amounts of unlabeled PDGF-BB or the peptides to be tested were added to duplicate wells and incubated for 3 h at room temperature in TBS plus 0.1% Tween, 1 mM CaCl2, 1 mM MgCl2, and 1% BSA. The plates were washed three times with TBS plus 0.1% Tween, and the bound ligand was removed with 0.1 M citric acid, pH 2.5, before counting in a γ-counter.
The cyclic peptides were analyzed and purified by preparative HPLC (dual-pump Pharmacia system with Waters RCM-μBondapak®-C18-cartridges, 10 μm 300 A 25×100 mm for prep. and 8×100 mm for anal., with flow rates of 8 and 2 ml/mim, respectively; UV detection at 226 and 278 nm), then MS, NMR(600 MHz,1 H) and CD. Solid-phase assays were run, as described in 2.4.

[1] = competition with 125I-PDGF-BB, 3 h at room temperature, immobilized purified PDGFR-β, read-out: Assay I50

Sequence of platelet-derived growth factor β-receptor (PDGFR-β) (P09619 33-1106, species assumed): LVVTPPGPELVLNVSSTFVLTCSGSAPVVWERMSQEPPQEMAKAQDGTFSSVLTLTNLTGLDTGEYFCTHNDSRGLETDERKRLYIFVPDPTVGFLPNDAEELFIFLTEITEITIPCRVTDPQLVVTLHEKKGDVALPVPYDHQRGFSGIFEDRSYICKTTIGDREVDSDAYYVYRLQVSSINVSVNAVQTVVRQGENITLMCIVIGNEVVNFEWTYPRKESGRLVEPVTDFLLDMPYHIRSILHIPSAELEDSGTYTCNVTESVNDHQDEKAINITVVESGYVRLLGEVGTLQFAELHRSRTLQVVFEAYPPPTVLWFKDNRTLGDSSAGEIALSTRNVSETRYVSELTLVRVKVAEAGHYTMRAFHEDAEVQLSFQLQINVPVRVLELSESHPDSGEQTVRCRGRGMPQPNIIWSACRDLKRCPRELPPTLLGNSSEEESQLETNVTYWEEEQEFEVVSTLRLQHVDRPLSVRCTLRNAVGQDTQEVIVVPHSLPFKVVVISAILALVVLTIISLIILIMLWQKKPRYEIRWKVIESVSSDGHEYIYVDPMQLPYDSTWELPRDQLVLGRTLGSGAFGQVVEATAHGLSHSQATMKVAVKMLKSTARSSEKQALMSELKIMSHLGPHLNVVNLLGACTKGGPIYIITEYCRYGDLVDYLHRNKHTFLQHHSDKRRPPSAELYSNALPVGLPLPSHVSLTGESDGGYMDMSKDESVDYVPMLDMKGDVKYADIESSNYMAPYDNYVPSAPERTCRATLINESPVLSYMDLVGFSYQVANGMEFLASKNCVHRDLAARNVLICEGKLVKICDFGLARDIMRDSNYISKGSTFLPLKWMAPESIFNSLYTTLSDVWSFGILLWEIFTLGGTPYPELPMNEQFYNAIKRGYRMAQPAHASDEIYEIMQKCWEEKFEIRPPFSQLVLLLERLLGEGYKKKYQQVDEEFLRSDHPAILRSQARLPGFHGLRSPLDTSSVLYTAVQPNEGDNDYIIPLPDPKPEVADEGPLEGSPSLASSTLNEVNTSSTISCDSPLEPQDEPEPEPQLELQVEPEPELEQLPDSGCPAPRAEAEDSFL

Compound | IC50 [1] | IC50
CC[C@H](C)[C@@H]1NC(=O)[C@H](CCC(=O)O)NC(=O)[C@@H]2CCCN2C(=O)[C@H]2CCCN2C(=O)[C@H]([C@@H](C)CC)NC(=O)[C@@H]2CCCN2C(=O)[C@H](CCCCN)NC(=O)[C@H](CCCCN)NC(=O)[C@H](CCCNC(=N)N)NC(=O)[C@H](C(C)C)NC1=O [Example 1] (cyclo(PEIVRKKPI[dP])) | 2200 µM | –
CC[C@H](C)[C@@H]1NC(=O)[C@H](Cc2ccc(O)cc2)NC(=O)[C@H](CCCCN)NC(=O)[C@H](CCCCN)NC(=O)[C@H](CCCNC(=N)N)NC(=O)[C@H](C(C)C)NC(=O)[C@H](Cc2ccc(O)cc2)NC(=O)[C@H](CCC(=O)O)NC(=O)[C@@H]2CCCN2C(=O)[C@H]2CCCN2C1=O [Example 2] (cyclo(PEYVRKKYI[dP])) | 2000 µM | –
CC[C@H](C)[C@@H]1NC(=O)[C@H](Cc2c[nH]c3ccccc23)NC(=O)[C@H](CCCCN)NC(=O)[C@H](CCCCN)NC(=O)[C@H](CCCNC(=N)N)NC(=O)[C@H](C(C)C)NC(=O)[C@H](Cc2c[nH]c3ccccc23)NC(=O)[C@H](CCC(=O)O)NC(=O)[C@@H]2CCCN2C(=O)[C@H]2CCCN2C1=O [Example 3] (cyclo(PEWVRKKWI[dP])) | 1500 µM | –
CC[C@H](C)[C@@H]1NC(=O)[C@H](Cc2ccc(O)cc2)NC(=O)[C@@H]2CCCN2C(=O)[C@H]2CCCN2C(=O)[C@H](Cc2ccc(O)cc2)NC(=O)[C@@H]2CCCN2C(=O)[C@H](CCCCN)NC(=O)[C@H](CCCCN)NC(=O)[C@H](CCCNC(=N)N)NC(=O)[C@H](C(C)C)NC1=O [Example 7] (cyclo(PYIVRKKPY[dP])) | 1500 µM | –
CC(C)[C@@H]1NC(=O)[C@H](Cc2ccc(O)cc2)NC(=O)[C@H](Cc2ccc(O)cc2)NC(=O)[C@@H]2CCCN2C(=O)[C@H]2CCCN2C(=O)[C@H](Cc2ccc(O)cc2)NC(=O)[C@H](Cc2ccc(O)cc2)NC(=O)[C@H](CCCCN)NC(=O)[C@H](CCCCN)NC(=O)[C@H](CCCNC(=N)N)NC1=O [Example 8] (cyclo(PYYVRKKYY[dP])) | 800 µM | –
CC(C)[C@@H]1NC(=O)[C@H](Cc2c[nH]c3ccccc23)NC(=O)[C@H](Cc2ccc(O)cc2)NC(=O)[C@@H]2CCCN2C(=O)[C@H]2CCCN2C(=O)[C@H](Cc2ccc(O)cc2)NC(=O)[C@H](Cc2c[nH]c3ccccc23)NC(=O)[C@H](CCCCN)NC(=O)[C@H](CCCCN)NC(=O)[C@H](CCCNC(=N)N)NC1=O [Example 9] (cyclo(YWVRKKWY[dP]P)) | – | 500 µM
CC(C)[C@@H]1NC(=O)[C@H](C)NC(=O)[C@H](Cc2ccc(O)cc2)NC(=O)[C@@H]2CCCN2C(=O)[C@H]2CCCN2C(=O)[C@H](Cc2ccc(O)cc2)NC(=O)[C@H](C)NC(=O)[C@H](CCCCN)NC(=O)[C@H](CCCCN)NC(=O)[C@H](CCCNC(=N)N)NC1=O [Example 10] (cyclo(PYAVRKKAY[dP])) | 2000 µM | –
CC(C)[C@@H]1NC(=O)[C@H](CO)NC(=O)[C@H](Cc2ccc(O)cc2)NC(=O)[C@@H]2CCCN2C(=O)[C@H]2CCCN2C(=O)[C@H](Cc2ccc(O)cc2)NC(=O)[C@H](CO)NC(=O)[C@H](CCCCN)NC(=O)[C@H](CCCCN)NC(=O)[C@H](CCCNC(=N)N)NC1=O [Example 11] (cyclo(PYSVRKKSY[dP])) | 2000 µM | –
CC(C)[C@@H]1NC(=O)[C@H](CCCCN)NC(=O)[C@H](Cc2ccc(O)cc2)NC(=O)[C@@H]2CCCN2C(=O)[C@H]2CCCN2C(=O)[C@H](Cc2ccc(O)cc2)NC(=O)[C@H](CCCCN)NC(=O)[C@H](CCCCN)NC(=O)[C@H](CCCCN)NC(=O)[C@H](CCCNC(=N)N)NC1=O [Example 12] (cyclo(PYKVRKKKY[dP])) | 1500 µM | –
CC[C@H](C)[C@@H]1NC(=O)[C@H](Cc2c[nH]c3ccccc23)NC(=O)[C@@H]2CCCN2C(=O)[C@H]2CCCN2C(=O)[C@H](Cc2c[nH]c3ccccc23)NC(=O)[C@@H]2CCCN2C(=O)[C@H](CCCCN)NC(=O)[C@H](CCCCN)NC(=O)[C@H](CCCNC(=N)N)NC(=O)[C@H](C(C)C)NC1=O [Example 13] (cyclo(PWIVRKKPW[dP])) | 260 µM | –
CC(C)[C@@H]1NC(=O)[C@H](Cc2ccc(O)cc2)NC(=O)[C@H](Cc2c[nH]c3ccccc23)NC(=O)[C@@H]2CCCN2C(=O)[C@H]2CCCN2C(=O)[C@H](Cc2c[nH]c3ccccc23)NC(=O)[C@H](Cc2ccc(O)cc2)NC(=O)[C@H](CCCCN)NC(=O)[C@H](CCCCN)NC(=O)[C@H](CCCNC(=N)N)NC1=O [Example 14] (cyclo(PWYVRKKYW[dP])) | 170 µM | –
CC(C)[C@@H]1NC(=O)[C@H](C)NC(=O)[C@H](Cc2c[nH]c3ccccc23)NC(=O)[C@@H]2CCCN2C(=O)[C@H]2CCCN2C(=O)[C@H](Cc2c[nH]c3ccccc23)NC(=O)[C@H](C)NC(=O)[C@H](CCCCN)NC(=O)[C@H](CCCCN)NC(=O)[C@H](CCCNC(=N)N)NC1=O [Example 16] (cyclo(PWAVRKKAW[dP])) | 800 µM | –
CC(C)[C@@H]1NC(=O)[C@H](CO)NC(=O)[C@H](Cc2c[nH]c3ccccc23)NC(=O)[C@@H]2CCCN2C(=O)[C@H]2CCCN2C(=O)[C@H](Cc2c[nH]c3ccccc23)NC(=O)[C@H](CO)NC(=O)[C@H](CCCCN)NC(=O)[C@H](CCCCN)NC(=O)[C@H](CCCNC(=N)N)NC1=O [Example 17] (cyclo(PWSVRKKSW[dP])) | 800 µM | –
CC(C)[C@@H]1NC(=O)[C@H](CCCCN)NC(=O)[C@H](Cc2c[nH]c3ccccc23)NC(=O)[C@@H]2CCCN2C(=O)[C@H]2CCCN2C(=O)[C@H](Cc2c[nH]c3ccccc23)NC(=O)[C@H](CCCCN)NC(=O)[C@H](CCCCN)NC(=O)[C@H](CCCCN)NC(=O)[C@H](CCCNC(=N)N)NC1=O [Example 18] (cyclo(PWKVRKKKW[dP])) | 500 µM | –
CC(C)[C@@H]1NC(=O)[C@H](Cc2ccc(O)cc2)NC(=O)[C@H](C)NC(=O)[C@@H]2CCCN2C(=O)[C@H]2CCCN2C(=O)[C@H](C)NC(=O)[C@H](Cc2ccc(O)cc2)NC(=O)[C@H](CCCCN)NC(=O)[C@H](CCCCN)NC(=O)[C@H](CCCNC(=N)N)NC1=O [Example 20] (cyclo(PAYVRKKYA[dP])) | 2000 µM | –
CC(C)[C@@H]1NC(=O)[C@H](Cc2c[nH]c3ccccc23)NC(=O)[C@H](C)NC(=O)[C@@H]2CCCN2C(=O)[C@H]2CCCN2C(=O)[C@H](C)NC(=O)[C@H](Cc2c[nH]c3ccccc23)NC(=O)[C@H](CCCCN)NC(=O)[C@H](CCCCN)NC(=O)[C@H](CCCNC(=N)N)NC1=O [Example 21] (cyclo(PAWVRKKWA[dP])) | 2000 µM | –
